PubChem BioAssay (NCI)
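Following 48 hours of exposure in 96-well plates, responses at five concentrations were used to interpolate endpoints linearly. Abbreviation: GI50, concentration required for 50% inhibition of growth. The concentration for full growth arrest is given as TGI.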

Legend:
Assay in all cases: DTP human tumour cell line panel, 48 h
HCC-2998 colon = test system: HCC-2998 colon
K-562 leukemia = test system: K-562 leukemia
MALME-3M melanoma = test system: MALME-3M melanoma
MOLT-4 leukemia = test system: MOLT-4 leukemia
NCI-H226 lung = test system: NCI-H226 lung
NCI/ADR-RES ovarian = test system: NCI/ADR-RES ovarian
OVCAR-3 ovarian = test system: OVCAR-3 ovarian
RPMI-8226 leukemia = test system: RPMI-8226 leukemia
SF-268 CNS = test system: SF-268 CNS
SK-MEL-2 melanoma = test system: SK-MEL-2 melanoma
SK-OV-3 ovarian = test system: SK-OV-3 ovarian
SW-620 colon = test system: SW-620 colon
U251 CNS = test system: U251 CNS

Compound | TGI (HCC-2998 colon) [µM] | TGI (K-562 leukemia) [µM] | TGI (MALME-3M melanoma) [µM] | TGI (MOLT-4 leukemia) [µM] | TGI (NCI-H226 lung) [µM] | TGI (NCI/ADR-RES ovarian) [µM] | TGI (OVCAR-3 ovarian) [µM] | TGI (RPMI-8226 leukemia) [µM] | TGI (SF-268 CNS) [µM] | TGI (SK-MEL-2 melanoma) [µM] | TGI (SK-OV-3 ovarian) [µM] | TGI (SW-620 colon) [µM] | TGI (U251 CNS) [µM] | GI50 (HCC-2998 colon) [nM] | GI50 (K-562 leukemia) [nM]
O=c1oc2ccccc2c(O)c1C(c1ccc2ccccc2c1)c1c(O)c2ccccc2oc1=O | 32.8 | > 100 | 57.5 | 55.1 | 67.9 | 38.5 | > 100 | > 100 | 50.8 | > 100 | > 100 | 87.7 | 39.2 |  | 
CCC/C(Cl)=N\OC(=O)Nc1ccc(Br)cc1 | 32.9 | 4.15 | 10.8 | 6.07 | 44 | 40.5 | 16.3 | 12.2 | 46.2 | 28.9 | 30.5 | 5.52 | 32.1 |  | 
O=C(n1[nH]c(=O)n(-c2ccc([N+](=O)[O-])cc2)c1=O)C(Cl)(Cl)Cl | > 75 | > 75 | > 75 | > 75 | > 75 | > 75 | > 75 | > 75 | > 75 | > 75 | > 75 | > 75 | > 75 |  | 
Cc1cc(C)n(C(=O)C(C)Sc2nnc(SC(C)C(=O)n3nc(C)cc3C)s2)n1 (stereo not given) | > 100 | > 100 | > 100 | > 100 | > 100 | > 100 | > 100 | > 100 | > 100 | > 100 | > 100 | > 100 | > 100 |  | 
C/C(=C\c1csc(C)n1)[C@@H]1C[C@@H]2O[C@]2(C)CCC[C@H](C)[C@H](O)[C@@H](C)C(=O)C(C)(C)[C@@H](O)CC(=O)O1 (tested in a mixture with another compound) |  | > 1 | > 1 | > 0.307 | > 1 | 0.13 | 0.0839 | > 0.172 | > 1 | > 0.464 | > 0.72 | > 1 | > 1 | 3.05 | 26.2
CC(C)CC(=O)OC[n+]1cccc(-c2c(COC(=O)NC(C)C)c(COC(=O)NC(C)C)c3n2CCC3)c1 | > 100 | > 100 | > 100 | > 100 | > 100 | > 100 | > 100 | > 100 | > 100 | > 100 | > 100 | > 100 | > 100 |  | 
NC(=Nc1ccc(Cl)c(Cl)c1)c1ccccc1N | 34.2 | 41.9 | 45.9 | 69.3 | > 100 | 95.5 | > 100 | 39.3 | > 100 | 86.8 | > 100 | > 100 | > 100 |  | 
COc1ccc2cc(CNCCCN3CCN(CCCNCc4ccc5cc(OC)ccc5c4)CC3)ccc2c1 | 0.643 | 0.366 | 3.14 | 5.72 | 3.69 | 6.51 | 3.02 | 0.577 | 3.32 | 3.42 | 2.72 | 0.982 | 3.13 |  | 
